# Experimental data as given in patent publication US20040116336A1, “Peptide derivatives” (priority 2002, published 2004).
# Read-outs that look alike come from different tables or passages of the source. Starred links: 1 amine or outer side, 2 acyl side, 3 side chain; linkers in the order of their positions; H or OH if unused. Non-standard residues stand in square brackets, D forms with d. Residues, ends and D or L forms follow the SMILES beside them. No end group written: not given here. *: point of attachment. X1 = O=C([C@H](Cc1ccc2ccc3cccc4ccc1c2c34)N[*:1])[*:2]; Phe(4-Cl) = N[C@@H](Cc1ccc(Cl)cc1)C(=O)O; Lys(Me2) = CN(C)CCCC[C@H](N)C(=O)O; Cha = N[C@@H](CC1CCCCC1)C(=O)O; Morpholide = C1CN(*)CCO1; Dap = NC[C@H](N)C(=O)O; Hexanoyl = CCCCCC(=O)*
# Columns and labels:
# APJ [1] = target: T1, APJ (Homo sapiens, UniProt P35414); experiment: Inhibitory activity on forskolin-stimulated cAMP production in CHO-A10 clone 6 cells; format: cell-based
# T1 construct: expressed in transfected cells; host or cells: CHO (CHO-A10; clone 6 for the cAMP assay)
# T1 sequence (P35414 1-380): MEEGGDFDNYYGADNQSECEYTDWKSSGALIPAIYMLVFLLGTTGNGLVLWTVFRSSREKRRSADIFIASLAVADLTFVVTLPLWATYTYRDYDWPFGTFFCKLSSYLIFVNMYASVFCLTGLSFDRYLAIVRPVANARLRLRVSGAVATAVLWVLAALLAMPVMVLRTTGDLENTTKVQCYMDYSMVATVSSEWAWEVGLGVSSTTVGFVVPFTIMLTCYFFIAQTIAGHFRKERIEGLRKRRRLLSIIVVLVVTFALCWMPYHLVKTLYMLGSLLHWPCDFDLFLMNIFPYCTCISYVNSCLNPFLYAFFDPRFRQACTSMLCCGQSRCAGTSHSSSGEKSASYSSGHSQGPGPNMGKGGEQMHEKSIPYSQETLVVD
# Experimental: Measurement of an Inhibitory Activity on Forskolin-Stimulated cAMP Production
# Hanks' balanced salt solution (HBSS) containing 0.2 mM 3-isobutyl-1-methylxanthine (IBMX) and 0.05% bovine serum albumin was prepared as an assay buffer, and each well was washed twice with 500 μl assay buffer and pre-incubated at 37° C. for 30 minutes. Further, each well was washed once with 500 μl assay buffer, and a sample dissolved in the assay buffer containing 1 μM forskolin was added at a volume of 500 μl/well and incubated at 37° C. for 30 minutes. Wells incubated with the assay buffer not containing forskolin were prepared in the same manner in order to determine the basal level of cellular cAMP production, while wells incubated with the assay buffer containing forskolin were also prepared in order to determine the maximum level of cAMP production stimulated with forskolin. After incubation was finished, each well was washed once with 500 μl assay buffer, and 500 μl lysis buffer 1B attached to a cAMP EIA system from Amersham was added to each well, to extract cAMP. According to the protocol of the kit, 100 μl of each extract was used to determine the level of cAMP. For the inhibitory activity of the sample on cAMP production, the difference (inhibited cAMP production) between the maximum level and the level of cAMP in the sample-containing wells was determined, and the inhibitory activity was expressed as percentage relative to the increased level of cAMP production stimulated with forskolin (that is, the difference between the maximum level and basal level), and from this dose-reaction curve, the EC50 was determined.
# APJ [2] = target: T1, APJ; experiment: Receptor binding assay-2 (compound in Reference Example 2 used)
# Experimental: This product was mixed with an equal volume of an assay buffer (50 mM Tris-HCl/pH 7.5, 5 mM EDTA, 0.5 mM PMSF, 20 μg/ml leupeptin, 0.1 μg/ml pepstatin A, 4 μg/ml E-64 (Peptide Research Laboratory, Co.), 0.1% bovine serum albumin) and stored at −30° C. before use.
# CHO-A10 cells were cultured, recovered with PBS containing 5 mM EDTA from a culture vessel, and suspended in the above-mentioned assay buffer not containing bovine serum albumin. The cells were homogenized 3 times at 12,000 rpm for 15 seconds by a Polytron homogenizer (manufactured by Kinematica Inc.) and then centrifuged (1000×g, 4° C., 10 minutes), and the supernatant was recovered. The precipitates were subjected again to the same procedure as above, and the respective supernatants were combined and centrifuged at 100,000×g, 4° C. for 1 hour, to recover precipitates (membrane fraction). The membrane fraction was suspended again in a small amount of the buffer, homogenized with a Teflon homogenizer and stored at −80° C. before use.
# Binding assay was carried out under the following conditions. […] Measurement of non-specific binding was carried out using a well containing 1 μM unlabeled compound in place of the test sample. After the incubation was finished, a cell harvester (Packard) adapted to 96 wells and a filter unit (GF/C, Packard) were used for separation thereby capturing the membrane fraction on the filter. After the filter was sufficiently dried, Microcinti 0 (Packard) was added thereto, and using Top Count (Packard), the amount of the labeled material captured together with the membrane fraction on the filter was measured.
# [3] = compound in Reference Example 2 used as ligand, read-out: IC50
EC50 (APJ [1]; read-out: EC50) [pM],IC50 (APJ [2]; [3]) [pM],Compound,EC50 (APJ [1]) [pM],IC50 (APJ [2]) [pM]
1100,370,CSCC[C@H](NC(=O)[C@@H]1CCCN1C(=O)CNC(=O)[C@H](CCCCN)NC(=O)[C@H](Cc1c[nH]cn1)NC(=O)[C@H](CO)NC(=O)[C@H](CC(C)C)NC(=O)[C@H](CCCNC(=N)N)NC(=O)[C@@H]1CCCN1C(=O)[C@H](CCCNC(=N)N)NC(=O)[C@H](Cc1ccccc1)NC(=O)[C@H](CCCNC(=N)N)NC(=O)[C@@H](N)CCCNC(=N)N)C(=O)N1CCC[C@H]1C(=O)N[C@@H](Cc1ccccc1)C(=O)O [Compound in Ex. 33],,
710,3500,CSCC[C@H](NC(=O)[C@@H]1CCCN1C(=O)CNC(=O)[C@H](CCCCN)NC(=O)[C@H](Cc1c[nH]cn1)NC(=O)[C@H](CO)NC(=O)[C@H](CC(C)C)NC(=O)[C@H](CCCNC(=N)N)NC(=O)[C@@H]1CCCN1C(=O)[C@@H](N)CCCNC(=N)N)C(=O)N1CCC[C@H]1C(=O)N[C@@H](CC1CCCCC1)C(=O)O [Compound in Ex. 49],,
190,290,CSCC[C@H](NC(=O)CNC(=O)CNC(=O)[C@H](CCCNC(=N)N)NC(=O)[C@H](C)NC(=O)[C@H](CO)NC(=O)[C@H](CC(C)C)NC(=O)[C@H](CCCNC(=N)N)NC(=O)[C@@H]1CCCN1C(=O)[C@@H](N)CCCNC(=N)N)C(=O)N1CCC[C@H]1C(=O)N[C@@H](Cc1ccc(Cl)cc1)C(=O)O [Compound in Ex. 54] (H-RPRLSARGGMP[Phe(4-Cl)]-OH; N-terminus and C-terminus assumed),,
,,CC(C)C[C@H](NC(=O)[C@H](CCCNC(=N)N)NC(=O)[C@@H]1CCCN1C(=O)[C@@H](N)CCCNC(=N)N)C(=O)N[C@@H](CO)C(=O)N[C@@H](C)C(=O)N[C@@H](CCCNC(=N)N)C(=O)NCC(=O)N1CCC[C@H]1C(=O)N[C@@H](CC1CCCCC1)C(=O)N1CCC[C@H]1C(=O)N[C@@H](Cc1ccc2ccc3cccc4ccc1c2c34)C(=O)O [Compound in Ex. 61] (H-RPRLSARGP[Cha]P[X1]-OH; N-terminus and C-terminus assumed),2200,560
360,1800,RPRLFARGPMF [Compound in Ex. 47],,
220,210,CSCC[C@H](NC(=O)[C@@H]1CCCN1C(=O)CNC(=O)[C@H](CCCCN)NC(=O)[C@H](C)NC(=O)[C@H](CO)NC(=O)[C@H](CC(C)C)NC(=O)[C@H](CCCNC(=N)N)NC(=O)[C@@H]1CCCN1C(=O)[C@H](CCCNC(=N)N)NC(=O)[C@@H]1CCC(=O)N1)C(=O)N1CCC[C@H]1C(=O)N[C@@H](Cc1ccccc1)C(=O)O [Compound in Ex. 29],,
,,CC(C)C[C@H](NC(=O)[C@H](CCCNC(=N)N)NC(=O)[C@@H]1CCCN1C(=O)[C@@H](N)CCCNC(=N)N)C(=O)N[C@@H](CO)C(=O)N[C@@H](C)C(=O)N[C@@H](CCCNC(=N)N)C(=O)NCC(=O)N1CCC[C@H]1C(=O)N[C@@H](CC1CCCCC1)C(=O)N[C@@H](Cc1ccc2ccc3cccc4ccc1c2c34)C(=O)O [Compound in Ex. 60] (H-RPRLSARGP[Cha][X1]-OH),1100,800
1100,450,"CCCCCC(=O)NC[C@H](NC(=O)[C@H](CO)NC(=O)[C@H](CC(C)C)NC(=O)[C@H](CCCNC(=N)N)NC(=O)[C@@H]1CCCN1C(=O)[C@@H](N)CCCNC(=N)N)C(=O)N[C@@H](CCCNC(=N)N)C(=O)NCC(=O)N1CCC[C@H]1C(=O)N[C@@H](CC1CCCCC1)C(=O)N1CCC[C@H]1C(=O)N[C@@H](Cc1ccc(Cl)cc1)C(=O)O [Compound in Ex. 67, Arg-Pro-Arg-Leu-Ser-Dap(C6)-Arg-Gly-Pro-Cha-Pro-Phe(Cl)] (H-RPRLS[Dap](Hexanoyl)RGP[Cha]P[Phe(4-Cl)]-OH; N-terminus and C-terminus assumed)",,
330,74,CSCC[C@H](NC(=O)[C@@H]1CCCN1C(=O)CNC(=O)[C@H](CCCNC(=N)N)NC(=O)[C@H](C)NC(=O)[C@H](CO)NC(=O)[C@H](CC(C)C)NC(=O)[C@H](CCCCN(C)C)NC(=O)[C@@H]1CCCN1C(=O)[C@@H](N)CCCNC(=N)N)C(=O)N1CCC[C@H]1C(=O)N[C@@H](Cc1ccccc1)C(=O)O [Compound in Ex. 63] (H-RP[Lys(Me2)]LSARGPMPF-OH; N-terminus and C-terminus assumed),,
140,270,RPRLFARGPMPF [Compound in Ex. 31],,
490,160,CC(C)C[C@H](NC(=O)[C@H](CCCNC(=N)N)NC(=O)[C@@H]1CCCN1C(=O)[C@H](CCCNC(=N)N)NC(=O)[C@H](CCC(N)=O)NC(=O)[C@H](CCCNC(=N)N)NC(=O)[C@@H](N)CCCNC(=N)N)C(=O)N[C@@H](CO)C(=O)N[C@@H](C)C(=O)N[C@@H](CCCNC(=N)N)C(=O)NCC(=O)N(C)C [Compound in Ex. 51] (H-RRQRPRLSARG-NMe2),,
230,140,CC(C)C[C@H](NC(=O)[C@H](CCCNC(=N)N)NC(=O)[C@@H]1CCCN1C(=O)[C@H](CCCNC(=N)N)NC(=O)[C@H](CCC(N)=O)NC(=O)[C@H](CCCNC(=N)N)NC(=O)[C@@H](N)CCCNC(=N)N)C(=O)N[C@@H](CO)C(=O)N[C@@H](C)C(=O)N[C@@H](CCCNC(=N)N)C(=O)NCC(=O)NCC(=O)N[C@@H](CC1CCCCC1)C(=O)O [Compound in Ex. 62] (H-RRQRPRLSARGG[Cha]-OH; N-terminus and C-terminus assumed),,
480,620,CC(C)C[C@H](NC(=O)[C@H](CCCNC(=N)N)NC(=O)[C@@H]1CCCN1C(=O)[C@H](CCCNC(=N)N)NC(=O)[C@H](CCC(N)=O)NC(=O)[C@H](CCCNC(=N)N)NC(=O)[C@@H](N)CCCNC(=N)N)C(=O)N[C@@H](CO)C(=O)N[C@@H](Cc1c[nH]cn1)C(=O)N[C@@H](CCCCN)C(=O)NCC(=O)N1CCC[C@H]1C(=O)N[C@@H](CC[S+](C)[O-])C(=O)O (some centres unmarked) [Compound in Ex. 20],,
690,110,"CC(=O)NC[C@H](NC(=O)[C@H](CO)NC(=O)[C@H](CC(C)C)NC(=O)[C@H](CCCNC(=N)N)NC(=O)[C@@H]1CCCN1C(=O)[C@@H](N)CCCNC(=N)N)C(=O)N[C@@H](CCCNC(=N)N)C(=O)NCC(=O)N1CCC[C@H]1C(=O)N[C@@H](CC1CCCCC1)C(=O)N1CCC[C@H]1C(=O)N[C@@H](Cc1ccc(Cl)cc1)C(=O)O [Compound in Ex. 66, Arg-Pro-Arg-Leu-Ser-Dap(Ac)-Arg-Gly-Pro-Cha-Pro-Phe(Cl)] (H-RPRLS[Dap](Ac)RGP[Cha]P[Phe(4-Cl)]-OH)",,
160,170,CSCC[C@H](NC(=O)[C@@H]1CCCN1C(=O)CNC(=O)[C@H](CCCCN)NC(=O)[C@H](Cc1c[nH]cn1)NC(=O)[C@H](CO)NC(=O)[C@H](CC(C)C)NC(=O)[C@H](CCCNC(=N)N)NC(=O)[C@@H]1CCCN1C(=O)[C@@H](N)CCCNC(=N)N)C(=O)N[C@@H](Cc1ccc(Cl)cc1)C(=O)O [Compound in Ex. 28] (H-RPRLSHKGPM[Phe(4-Cl)]-OH; N-terminus and C-terminus assumed),,
1200,260,CC(C)C[C@H](NC(=O)[C@H](CCCNC(=N)N)NC(=O)[C@@H]1CCCN1C(=O)[C@H](CCCNC(=N)N)NC(=O)[C@H](CCC(N)=O)NC(=O)[C@H](CCCNC(=N)N)NC(=O)[C@@H](N)CCCNC(=N)N)C(=O)N[C@@H](CO)C(=O)N[C@@H](C)C(=O)N[C@@H](CCCNC(=N)N)C(=O)NCC(=O)N1CCOCC1 [Compound in Ex. 52] (H-RRQRPRLSARG-Morpholide; N-terminus assumed),,
